{"source": "patent US9962351B2", "about": "“Small molecule substance for improving sensitivity of bacteria to antibiotics” (priority 2012, dated 2018)", "key": {"[1]": {"test_system": "Escherichia coli K12 BW25113", "experiment": "MIC by double dilution method, initial bacteria", "format": "cell-based", "details": "for MIC: Escherichia coli, BW25113, read-out: MIC0", "method": "(§1) Escherichia coli is a bacterium that is most commonly found in the gut of human and animal. It mainly parasitizes in the intestines, and accounts for about 1% of the intestine bacteria. Minimum inhibitory concentration (MIC) of Escherichia coli K12 BW25113 for ten kinds of antibiotics was detected with double dilution method. Escherichia coli K12 BW25113 of 10^5 colony forming unit/ml was cultured respectively in Luria-Bertani (LB) liquid medium separately with each of ten antibiotics at the concentration of ½ MIC at 37° C., and was serially passaged 10 times, so that the MIC of single colony was determined."}, "[2]": {"test_system": "antibiotic-resistant Escherichia coli (passaged K12 BW25113)", "experiment": "MIC of single colony after 10 serial passages with antibiotic at 1/2 MIC", "format": "cell-based", "details": "for MIC: Escherichia coli, BW25113, read-out: MIC10; for MIC10/MIC0: ratio of MIC after to before passage", "method": "as §1"}}, "data": [{"molecule": "CC(C)(O/N=C(\\C(=O)N[C@@H]1C(=O)N2C(C(=O)[O-])=C(C[n+]3ccccc3)CS[C@H]12)c1csc(N)n1)C(=O)O", "note": "[CAZ, ceftazidime]", "values": [{"measurement": "MIC", "setting": "[1]", "result": 0.125, "unit": "µg/mL"}, {"measurement": "MIC", "setting": "[2]", "result": 8, "unit": "µg/mL"}]}, {"molecule": "CC[C@H]1OC(=O)[C@H](C)[C@@H](O[C@H]2C[C@@](C)(OC)[C@@H](O)[C@H](C)O2)[C@H](C)[C@@H](O[C@@H]2O[C@H](C)C[C@H](N(C)C)[C@H]2O)[C@](C)(O)C[C@@H](C)C(=O)[C@H](C)[C@@H](O)[C@]1(C)O", "note": "[ER, erythromycin]", "values": [{"measurement": "MIC", "setting": "[1]", "result": 50, "unit": "µg/mL"}, {"measurement": "MIC", "setting": "[2]", "result": 3200, "unit": "µg/mL"}, {"measurement": "MIC10/MIC0", "setting": "[2]", "result": 64}]}, {"molecule": "[H]/N=C(/N)N[C@H]1[C@H](O)[C@@H](O)[C@H](O[C@@H]2O[C@@H](C)[C@](O)(C=O)[C@H]2O[C@@H]2O[C@@H](CO)[C@H](O)[C@@H](O)[C@@H]2NC)[C@@H](N/C(N)=N\\[H])[C@@H]1O", "note": "[SM, streptomycin]", "values": [{"measurement": "MIC", "setting": "[1]", "result": 6.25, "unit": "µg/mL"}, {"measurement": "MIC", "setting": "[2]", "result": 400, "unit": "µg/mL"}, {"measurement": "MIC10/MIC0", "setting": "[2]", "result": 64}]}, {"molecule": "O=C(N[C@H](CO)[C@H](O)c1ccc([N+](=O)[O-])cc1)C(Cl)Cl", "note": "[CAP, chloramphenicol]", "values": [{"measurement": "MIC", "setting": "[1]", "result": 6.8, "unit": "µg/mL"}, {"measurement": "MIC", "setting": "[2]", "result": 435, "unit": "µg/mL"}, {"measurement": "MIC10/MIC0", "setting": "[2]", "result": 64}]}, {"molecule": "gentamicin", "values": [{"measurement": "MIC0", "setting": "[1]; before passage", "result": 1.25, "unit": "µg/mL"}, {"measurement": "MIC10", "setting": "[2]; after 10 serial passages in LB with the respective antibiotic at 1/2 MIC, 37° C.", "result": 80, "unit": "µg/mL"}, {"measurement": "MIC10/MIC0", "setting": "[2]", "result": 64}]}, {"molecule": "NC[C@H]1O[C@H](O[C@H]2[C@H](O)[C@@H](O[C@H]3O[C@H](CO)[C@@H](O)[C@H](N)[C@H]3O)[C@H](N)C[C@@H]2N)[C@H](O)[C@@H](O)[C@@H]1O", "note": "[KAN, kanamycin]", "values": [{"measurement": "MIC", "setting": "[1]", "result": 6.25, "unit": "µg/mL"}, {"measurement": "MIC", "setting": "[2]", "result": 400, "unit": "µg/mL"}, {"measurement": "MIC10/MIC0", "setting": "[2]", "result": 64}]}, {"molecule": "CCn1cc(C(=O)O)c(=O)c2ccc(C)nc21", "note": "[NA, nalidixic acid]", "values": [{"measurement": "MIC", "setting": "[1]", "result": 5, "unit": "µg/mL"}, {"measurement": "MIC", "setting": "[2]", "result": 320, "unit": "µg/mL"}, {"measurement": "MIC10/MIC0", "setting": "[2]", "result": 64}]}, {"molecule": "CN(C)[C@@H]1C(O)=C(C(N)=O)C(=O)[C@@]2(O)C(O)=C3C(=O)c4c(O)cccc4[C@@](C)(O)[C@H]3C[C@@H]12", "note": "[TET, tetracycline]", "values": [{"measurement": "MIC", "setting": "[1]", "result": 3.12, "unit": "µg/mL"}, {"measurement": "MIC", "setting": "[2]", "result": 200, "unit": "µg/mL"}]}, {"molecule": "CNC1CCCN(c2c(F)cc3c(=O)c(C(=O)O)cn(C4CC4)c3c2OC)C1", "note": "(stereo not shown) [BLFX, balofloxacin]", "values": [{"measurement": "MIC", "setting": "[1]", "result": 0.25, "unit": "µg/mL"}, {"measurement": "MIC", "setting": "[2]", "result": 16, "unit": "µg/mL"}, {"measurement": "MIC10/MIC0", "setting": "[2]", "result": 64}]}]}
